Reference: PubChem BioAssay AID1963852 (Molecular Pharmacology Branch, DTP, NCI, 2024)

System: 282377-053-R-J1-PDC complex spheroid viability
Test: Anticancer human tumor 282377-053-R-J1-PDC patient-derived colon adenocarcinoma cell line growth inhibition [POLQ]
Settings: for IC50: curve of first compound; for viability, T/C: stronger effect = lower value
Experimental: Multicellular complex tumor spheroid response to Polymerase (POL) inhibitors (novobiocin, ART-558, RP6685) in combination with a variety of drugs and investigational agents in selected tumor cell lines
The POL inhibitors (novobiocin, ART-558, and RP6685) were evaluated both individually and in combination with standard of care and investigational anticancer small molecules within a complex spheroid model of solid tumors. . Complex spheroids include a stromal component modeled by human endothelial cells (HUVEC) and fibroblasts modeled by human mesenchymal stem cells (MSCs). The concentration ranges selected for each drug and investigational agent were based upon clinically achievable concentrations if the clinical Cmax of the agent was known.
Compounds. The drugs and investigational agents: novobiocin (NSC847541), ART-558 (NSC835418), RP-6685 (NSC848927), peposertib (NSC802822), ceralasertib (NSC780249), elimusertib (NSC800525), camonsertib (NSC841442), AZD-1390 (NSC803789), olaparib (NSC753686), talazoparib (NSC767125), rucaparib (NSC756644), sotorasib (NSC818433), MRTX-1133 (NSC836407), SN-38 (NSC673596), topotecan (NSC609699), epotoside (NSC141540), doxorubicin (NSC123127), gemcitabine (NSC613327), 5-fluorouracil (NSC19893), paclitaxel (NSC125973), vemurafenib (NSC761431), MSA-2 (NSC828583), SN-011 (NSC837082), adavosertib (NSC754352), prexasertib (NSC758257), carboplatin (NSC241240) and oxaliplatin (NSC266046), were obtained from the National Cancer Institute (NCI) Developmental Therapeutics Program Chemical Repository (21). The FDA-approved anticancer drug set is available from the Developmental Therapeutics Program at https://dtp.cancer.gov/organization/dscb/obtaining/. […] The stock solutions were prepared in dimethyl sulfoxide (DMSO, Sigma-Aldrich, St. Louis, MO, cat. D2650), except for the platinum compounds which were prepared in saline (Quality Biological, Gaithersburg, MD, cat. 114-055-101), at 800-fold the tested concentration and stored at -70 degrees C prior to their use. All drugs and investigational agents were tested over a range starting from a high concentration at or near the clinical Cmax and decreasing in half-log increments. If the clinical Cmax for an agent had not been determined, the highest concentration tested was 10 microM, except for SN-38, which was tested at a high concentration of 1 microM.
Cell Culture. All cells were maintained in an incubator at 37 degrees C and 5% CO2 with 95% humidity. The PDC lines were cultured according to standard operating procedures established by the NCI PDMR (https://pdmr.cancer.gov). Table 3 of the manuscript, lists the cell lines along with the number of the three cell types plated to form the mct-spheroids and media for tumor cell growth. After thawing, all PDC lines, except 997537-175-T-J1-PDC and 415267-285-R-J2-PDC, were cultured in Matrigel-coated flasks prepared with a working solution of 1X Ham's F-12 nutrient mix, without supplementation (Thermo Fisher Scientific, cat. 11765054), 100 U/mL penicillin-streptomycin (Thermo Fisher Scientific, cat. 15140122), and 2.5% Matrigel (Corning Inc., Corning, NY, cat. 354248) for the first three passages. The two PDC lines 997537-175-T-J1-PDC and 415267-285-R-J2-PDC were cultured on uncoated flasks. The 857933-349-R-J2-PDC line was cultured in 6C/Colon 1B media containing advanced DMEM/F-12 (Thermo Fisher Scientific, cat. 12634028), 10 mM HEPES (Thermo Fisher Scientific, cat. 15630080), 1X GlutaMAX supplement (Thermo Fisher Scientific, cat. 35050061), 0.1 mg/mL primocin (InvivoGen, San Diego, CA, cat. ant-pm-2), 10% defined fetal bovine serum, heat inactivated (HyClone Laboratories Inc., Logan, UT, cat. SH30070.03HI), 50% L-WRN conditioned media (ATCC, cat. CRL-3276), 1.25 mM N-Acetyl-L-cysteine (Sigma-Aldrich, cat. A9165), 10 mM nicotinamide (Sigma-Aldrich, cat. N0636), 1X B-27 supplement (Thermo Fisher Scientific, cat. 17504044), 1X N-2 supplement (Thermo Fisher Scientific, cat. […]
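Note: spheroids exposed to compounds for seven days.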
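Throughout, for viability, T/C: 100% = DMSO vehicle control viability.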

CC(=O)O[C@H]1C(=O)[C@@]2(C)[C@H]([C@H](OC(=O)c3ccccc3)[C@]3(O)C[C@H](OC(=O)[C@H](O)[C@@H](NC(=O)c4ccccc4)c4ccccc4)C(C)=C1C3(C)C)[C@]1(OC(C)=O)CO[C@@H]1C[C@@H]2O + COC1C(OC(N)=O)C(O)C(Oc2ccc3c(O)c(NC(=O)c4ccc(O)c(CC=C(C)C)c4)c(=O)oc3c2C)OC1(C)C
IC50 (second compound 0.0316 µM): < 9.49 nM
IC50 (second compound 0.1 µM): 10.4 nM
IC50 (second compound 0.316 µM): 11.5 nM
IC50 (second compound 1 µM): 11.4 nM
IC50 (second compound 3.16 µM): 12.6 nM
IC50 (second compound 10 µM): 13.1 nM
viability, T/C (second compound 0.0316 µM, first compound 0.00949 µM): 39.3%
viability, T/C (second compound 0.0316 µM, first compound 0.03 µM): 18.9%
viability, T/C (second compound 0.0316 µM, first compound 0.0949 µM): 19.9%
viability, T/C (second compound 0.0316 µM, first compound 0.3 µM): 20.6%
viability, T/C (second compound 0.0316 µM, first compound 0.949 µM): 19.5%
viability, T/C (second compound 0.0316 µM, first compound 3 µM): 24.1%
viability, T/C (second compound 0.1 µM, first compound 0.00949 µM): 52.5%
viability, T/C (second compound 0.1 µM, first compound 0.03 µM): 21.9%
viability, T/C (second compound 0.1 µM, first compound 0.0949 µM): 20.9%
viability, T/C (second compound 0.1 µM, first compound 0.3 µM): 18.1%
viability, T/C (second compound 0.1 µM, first compound 0.949 µM): 22.1%
viability, T/C (second compound 0.1 µM, first compound 3 µM): 25.3%
viability, T/C (second compound 0.316 µM, first compound 0.00949 µM): 55.7%
viability, T/C (second compound 0.316 µM, first compound 0.03 µM): 20.8%
viability, T/C (second compound 0.316 µM, first compound 0.0949 µM): 19.9%
viability, T/C (second compound 0.316 µM, first compound 0.3 µM): 20.7%
viability, T/C (second compound 0.316 µM, first compound 0.949 µM): 22.9%
viability, T/C (second compound 0.316 µM, first compound 3 µM): 20.6%
viability, T/C (second compound 1 µM, first compound 0.00949 µM): 55.6%
viability, T/C (second compound 1 µM, first compound 0.03 µM): 20.8%
viability, T/C (second compound 1 µM, first compound 0.0949 µM): 16.8%
viability, T/C (second compound 1 µM, first compound 0.3 µM): 17.1%
viability, T/C (second compound 1 µM, first compound 0.949 µM): 22.2%
viability, T/C (second compound 1 µM, first compound 3 µM): 27.9%
viability, T/C (second compound 3.16 µM, first compound 0.00949 µM): 58.5%
viability, T/C (second compound 3.16 µM, first compound 0.03 µM): 23.8%
viability, T/C (second compound 3.16 µM, first compound 0.0949 µM): 15.8%
viability, T/C (second compound 3.16 µM, first compound 0.3 µM): 18.2%
viability, T/C (second compound 3.16 µM, first compound 0.949 µM): 23.1%
viability, T/C (second compound 3.16 µM, first compound 3 µM): 29.4%
viability, T/C (second compound 10 µM, first compound 0.00949 µM): 61.4%
viability, T/C (second compound 10 µM, first compound 0.03 µM): 20.9%
viability, T/C (second compound 10 µM, first compound 0.0949 µM): 16.9%
viability, T/C (second compound 10 µM, first compound 0.3 µM): 20.7%
viability, T/C (second compound 10 µM, first compound 0.949 µM): 24.5%
viability, T/C (second compound 10 µM, first compound 3 µM): 20.2%

O=c1[nH]cc(F)c(=O)[nH]1 + COC1C(OC(N)=O)C(O)C(Oc2ccc3c(O)c(NC(=O)c4ccc(O)c(CC=C(C)C)c4)c(=O)oc3c2C)OC1(C)C
IC50 (second compound 0.0316 µM): > 10000 nM
IC50 (second compound 0.1 µM): > 10000 nM
IC50 (second compound 0.316 µM): > 10000 nM
IC50 (second compound 1 µM): > 10000 nM
IC50 (second compound 3.16 µM): > 10000 nM
IC50 (second compound 10 µM): > 10000 nM
viability, T/C (second compound 0.0316 µM, first compound 0.0316 µM): 112%
viability, T/C (second compound 0.0316 µM, first compound 0.1 µM): 89%
viability, T/C (second compound 0.0316 µM, first compound 0.316 µM): 104%
viability, T/C (second compound 0.0316 µM, first compound 1 µM): 92%
viability, T/C (second compound 0.0316 µM, first compound 3.16 µM): 74.6%
viability, T/C (second compound 0.0316 µM, first compound 10 µM): 66.9%
viability, T/C (second compound 0.1 µM, first compound 0.0316 µM): 109%
viability, T/C (second compound 0.1 µM, first compound 0.1 µM): 107%
viability, T/C (second compound 0.1 µM, first compound 0.316 µM): 90.9%
viability, T/C (second compound 0.1 µM, first compound 1 µM): 89.7%
viability, T/C (second compound 0.1 µM, first compound 3.16 µM): 72.1%
viability, T/C (second compound 0.1 µM, first compound 10 µM): 71%
viability, T/C (second compound 0.316 µM, first compound 0.0316 µM): 112%
viability, T/C (second compound 0.316 µM, first compound 0.1 µM): 125%
viability, T/C (second compound 0.316 µM, first compound 0.316 µM): 97.1%
viability, T/C (second compound 0.316 µM, first compound 1 µM): 81.5%
viability, T/C (second compound 0.316 µM, first compound 3.16 µM): 77.7%
viability, T/C (second compound 0.316 µM, first compound 10 µM): 71.1%
viability, T/C (second compound 1 µM, first compound 0.0316 µM): 112%
viability, T/C (second compound 1 µM, first compound 0.1 µM): 97.9%
viability, T/C (second compound 1 µM, first compound 0.316 µM): 94.4%
viability, T/C (second compound 1 µM, first compound 1 µM): 86.4%
viability, T/C (second compound 1 µM, first compound 3.16 µM): 79.6%
viability, T/C (second compound 1 µM, first compound 10 µM): 71.2%
viability, T/C (second compound 3.16 µM, first compound 0.0316 µM): 102%
viability, T/C (second compound 3.16 µM, first compound 0.1 µM): 101%
viability, T/C (second compound 3.16 µM, first compound 0.316 µM): 88.1%
viability, T/C (second compound 3.16 µM, first compound 1 µM): 100%
viability, T/C (second compound 3.16 µM, first compound 3.16 µM): 80.7%
viability, T/C (second compound 3.16 µM, first compound 10 µM): 66.8%
viability, T/C (second compound 10 µM, first compound 0.0316 µM): 105%
viability, T/C (second compound 10 µM, first compound 0.1 µM): 103%
viability, T/C (second compound 10 µM, first compound 0.316 µM): 115%
viability, T/C (second compound 10 µM, first compound 1 µM): 98%
viability, T/C (second compound 10 µM, first compound 3.16 µM): 82.2%
viability, T/C (second compound 10 µM, first compound 10 µM): 63.5%
